Data: patent publication US20120116095A1, “GLYCINE TRANSPORTER INHIBITORS” (TAISHO PHARMACEUTICAL C0., LTD., priority 2009, published 2012)

Tests used:
[1] = target: T1, human type 1 glycine transporter (GlyT1) (Homo sapiens, UniProt P48067); test: Glycine uptake inhibition experiment ([3H]glycine uptake in T98G cells); type: cell-based; conditions: [3H]glycine 250 nM, 15 min, room temperature, read-out: glycine uptake inhibitory activity (IC50 value)
T1 construct: Glioma T98G cells endogenously expressing human type 1 glycine transporter (GlyT1) were used; endogenous in cells; host or cells: T98G human glioma cells
T1 sequence (P48067 1-706): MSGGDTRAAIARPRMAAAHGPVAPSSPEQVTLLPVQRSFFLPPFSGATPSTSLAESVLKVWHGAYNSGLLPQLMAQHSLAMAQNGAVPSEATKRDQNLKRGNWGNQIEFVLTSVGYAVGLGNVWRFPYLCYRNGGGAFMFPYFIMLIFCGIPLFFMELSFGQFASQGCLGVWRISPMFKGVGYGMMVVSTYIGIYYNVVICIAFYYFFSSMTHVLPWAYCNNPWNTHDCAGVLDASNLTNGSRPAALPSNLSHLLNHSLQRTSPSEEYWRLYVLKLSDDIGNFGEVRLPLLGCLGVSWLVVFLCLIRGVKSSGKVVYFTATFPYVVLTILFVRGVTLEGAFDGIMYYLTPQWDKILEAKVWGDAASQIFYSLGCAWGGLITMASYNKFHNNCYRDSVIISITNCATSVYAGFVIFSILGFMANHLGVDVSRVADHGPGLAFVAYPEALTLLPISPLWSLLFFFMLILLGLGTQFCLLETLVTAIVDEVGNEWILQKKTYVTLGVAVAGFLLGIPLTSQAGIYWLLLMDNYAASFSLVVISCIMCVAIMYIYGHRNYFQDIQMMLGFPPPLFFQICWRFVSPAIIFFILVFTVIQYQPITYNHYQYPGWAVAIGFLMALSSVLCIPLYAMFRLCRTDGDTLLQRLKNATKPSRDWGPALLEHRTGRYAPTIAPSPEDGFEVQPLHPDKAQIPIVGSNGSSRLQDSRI
Protocol: A glycine uptake experiment was conducted as described in Neuron, 8, 927-935, 1992. Glioma T98G cells endogenously expressing human type 1 glycine transporter (GlyT1) were used. T98G cells were seeded in a 96-well plate at 2.0×10^4 cells/well and cultured overnight in a CO2 incubator. A test compound was dissolved in a 100% DMSO solution and then dissolved in 10 mM HEPES buffer (pH 7.4) containing 150 mM sodium chloride, 1 mM calcium chloride, 5 mM potassium chloride, 1 mM magnesium chloride, 10 mM glucose and 0.2% bovine serum albumin. After removing the cell culture medium, the cells were pre-treated with the test compound for 10 minutes. Subsequently, the test compound and [^3H]glycine (final concentration: 250 nM) were added to the cells and incubated at room temperature for 15 minutes. After the incubation, the extracellular solution was aspirated with a manifold to remove the excess labeled glycine existing outside the cells, and the cells were then lysed with 0.5 M aqueous sodium hydroxide. The amount of glycine uptake was determined by measuring radioactivity in the cell lysate using a liquid scintillation counter. Glycine uptake in the presence of 10 μM ALX5407 was defined as non-specific uptake, and the value calculated by subtracting this non-specific uptake from the total uptake in the absence of 10 μM ALX5407 was defined as specific uptake. Moreover, an inhibition curve was obtained for each test compound at concentrations of […] to calculate the glycine uptake inhibitory activity (IC50 value) of each test substance.
It should be noted that ALX5407 is a HCl salt of N-[(3R)-3-([1,1′-biphenyl]-4-yloxy)-3-(4-fluorophenyl)propyl]-N-methylglycine.

P-glycoprotein (P-gp) = target: T2, P-glycoprotein (P-gp) (Homo sapiens, UniProt P08183); test: Test for substrate recognition by P-gp (LLC-GA5-COL300 cells); type: in vitro ADME; conditions: 10 μM, Human MDR1-expressing LLC-GA5-COL300 cells, Apical to Basolateral and Basolateral to Apical
T2 construct: expressed in transfected cells; host or cells: LLC-GA5-COL300 (pig kidney LLC-PK1 cells expressing human MDR1)
From the text: In the case of drugs that act on the central nervous system, it is generally important for such drugs to be transferred from blood into brain for development of their efficacy. In the blood-brain barrier, there is found P-glycoprotein (P-gp), which is a typical member of the efflux transporters that control drug penetration; and P-gp inhibits the penetration of its substrate drugs into the brain. Thus, in developing a drug, recognition performance as a P-gp substrate can be used as an indicator of brain penetration.
A test for substrate recognition by P-gp was conducted as described in J. Pharmacol. Exp. Ther. (1992) Vol. 263, No. 2, 840-845 and J. Biol. Chem. (1992) Vol. 267, No. 34, 24248-24252. Specifically, LLC-GA5-COL300 cells (i.e., a Human MDR1-expressing system originating from a pig kidney-derived cultured renal epithelial cell line, LLC-PK1) were used after being cultured for 4 days on trans wells, and the medium in each well was replaced by Hank's balanced salt solution (HBSS) immediately before use in the test. After a test compound solution (i.e., a DMSO solution of a test compound, which was further diluted with HBSS and adjusted to a final concentration of 10 μM) was added to the Donor side of the LLC-GA5-COL300 cells, aliquots of HBSS were sampled over time from the Acceptor side to determine the test compound concentration in each collected sample by LC-MS/MS.
The membrane permeability coefficient (×10^−6 cm/sec) was calculated by the accumulated amount of the compound into the Acceptor side for both directions, Apical to Basolateral and Basolateral to Apical. and the ratio of these coefficients (Efflux Ratio) was then used to evaluate substrate recognition by P-gp.

male Sprague-Dawley rats = test: Social recognition test (MK-801-treated rats); type: in vivo; conditions: rat; for Ratio (second exploration time/first exploration time): MK-801 0.1 mg/kg i.p.
Protocol: This experiment was performed using male Sprague-Dawley rats according to the reported method (Shimazaki et al., Psychopharmacology, 209, 263-270, 2010). Adult rats (9 weeks old) received intraperitoneal administration of MK-801 (0.1 mg/kg), and were immediately placed in test cages and acclimated for 30 minutes. Thereafter, juvenile rats (4 weeks old) were placed in the same test cages, where juvenile rats and adult rats were left for 5 minutes, during which the time it took for the adult rats to show social behavior (sniffing, grooming, following) to the juvenile rats was measured (first exploration time). Then, the juvenile rats were removed from the test cages and returned to their home cages. After 30 minutes, the same juvenile rats that were used in the first exploration were placed in the test cages, and the time it took for the adult rats to show social behavior (sniffing, grooming, following) to the juvenile rats during a 5-minute period was measured (second exploration time). The social recognition was expressed as the ratio of second exploration time to first exploration time. The test substance (Compound 10) was orally administered one hour before the start of first exploration. The vehicle group was administered a 0.5% methyl cellulose solution.

T2 sequence (P08183 whole entry): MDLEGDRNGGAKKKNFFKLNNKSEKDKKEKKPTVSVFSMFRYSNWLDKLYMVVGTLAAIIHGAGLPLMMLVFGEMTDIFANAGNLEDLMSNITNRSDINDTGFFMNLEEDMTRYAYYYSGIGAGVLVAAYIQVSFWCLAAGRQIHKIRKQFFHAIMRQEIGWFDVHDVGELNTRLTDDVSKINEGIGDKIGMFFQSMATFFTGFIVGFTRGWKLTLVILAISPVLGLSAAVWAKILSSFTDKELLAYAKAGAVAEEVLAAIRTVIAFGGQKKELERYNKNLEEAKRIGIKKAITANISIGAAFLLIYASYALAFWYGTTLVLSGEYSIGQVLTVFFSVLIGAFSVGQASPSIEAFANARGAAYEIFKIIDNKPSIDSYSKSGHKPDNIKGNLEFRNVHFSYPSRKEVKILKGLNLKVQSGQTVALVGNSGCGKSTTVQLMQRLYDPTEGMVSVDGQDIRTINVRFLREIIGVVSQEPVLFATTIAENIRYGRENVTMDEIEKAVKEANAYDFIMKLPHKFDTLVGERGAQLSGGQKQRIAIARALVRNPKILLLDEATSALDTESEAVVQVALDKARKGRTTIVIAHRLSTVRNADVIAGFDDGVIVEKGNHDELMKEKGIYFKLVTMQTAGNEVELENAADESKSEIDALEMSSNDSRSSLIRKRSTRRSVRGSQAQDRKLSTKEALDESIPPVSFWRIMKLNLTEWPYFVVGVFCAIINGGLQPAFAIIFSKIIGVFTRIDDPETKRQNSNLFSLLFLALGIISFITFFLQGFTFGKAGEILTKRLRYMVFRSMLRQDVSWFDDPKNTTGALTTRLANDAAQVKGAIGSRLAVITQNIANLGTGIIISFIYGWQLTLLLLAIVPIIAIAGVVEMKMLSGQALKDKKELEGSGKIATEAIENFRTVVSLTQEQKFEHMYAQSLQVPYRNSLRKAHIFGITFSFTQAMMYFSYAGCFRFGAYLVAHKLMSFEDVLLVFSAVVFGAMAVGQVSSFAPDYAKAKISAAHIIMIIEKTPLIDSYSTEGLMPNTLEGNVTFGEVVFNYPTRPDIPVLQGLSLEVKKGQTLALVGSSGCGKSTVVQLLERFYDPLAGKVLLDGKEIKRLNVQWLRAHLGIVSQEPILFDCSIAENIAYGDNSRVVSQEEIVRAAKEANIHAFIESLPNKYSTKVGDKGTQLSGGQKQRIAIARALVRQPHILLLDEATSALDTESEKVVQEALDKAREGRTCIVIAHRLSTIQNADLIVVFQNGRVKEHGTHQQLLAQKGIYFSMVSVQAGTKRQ

Compound: CC(C)N(Cc1ccc(F)c(-c2ccc(OC(F)(F)F)cc2)c1)C(=O)c1cn(C)cn1 [Compound 10, N-{[6-Fluoro-4′-(trifluoromethoxy)biphenyl-3-yl]methyl}-1-methyl-N-(propan-2-yl)-1H-imidazole-4-carboxamide]
- IC50 [1]: 14.8 nM
- recognition as a P-gp substrate (Efflux Ratio criteria) (P-glycoprotein (P-gp)): not to be recognized as a P-gp substrate
- Ratio (second exploration time/first exploration time) (male Sprague-Dawley rats; 0.1 mg/kg orally one hour before first exploration, p<0.05): 0.65 ± 0.05 ^p<0.05
- Ratio (second exploration time/first exploration time) (male Sprague-Dawley rats; 0.3 mg/kg orally one hour before first exploration, p<0.01): 0.60 ± 0.06 ^p<0.01
- effect on cognitive functions (social recognition, in words) (male Sprague-Dawley rats; compared to the vehicle group, oral): enhancing effect on cognitive functions
